Consider four molecules from paper PMC7026418, “The kinase polypharmacology landscape of clinical PARP inhibitors” (Scientific Reports, 2020).

Targets include ROCK2 (Homo sapiens, UniProt O75116); NEK6 (Homo sapiens, UniProt Q9HC98); KIT(V559D,T670I) (Homo sapiens, UniProt P10721, T670I/V559D); CAMK1D (Homo sapiens, UniProt Q8IU85); SRMS (Homo sapiens, UniProt Q9H3Y6).
What all share (assay): biochemical
What all share (design): DiscoveRx KINOMEscan active site-directed competition binding; percent of control kinase bound to immobilised ligand

The next test has as its target T1, FLT3(R834Q) (Homo sapiens, UniProt P36888, R834Q).
T1 sequence (P36888 1-993 R834Q): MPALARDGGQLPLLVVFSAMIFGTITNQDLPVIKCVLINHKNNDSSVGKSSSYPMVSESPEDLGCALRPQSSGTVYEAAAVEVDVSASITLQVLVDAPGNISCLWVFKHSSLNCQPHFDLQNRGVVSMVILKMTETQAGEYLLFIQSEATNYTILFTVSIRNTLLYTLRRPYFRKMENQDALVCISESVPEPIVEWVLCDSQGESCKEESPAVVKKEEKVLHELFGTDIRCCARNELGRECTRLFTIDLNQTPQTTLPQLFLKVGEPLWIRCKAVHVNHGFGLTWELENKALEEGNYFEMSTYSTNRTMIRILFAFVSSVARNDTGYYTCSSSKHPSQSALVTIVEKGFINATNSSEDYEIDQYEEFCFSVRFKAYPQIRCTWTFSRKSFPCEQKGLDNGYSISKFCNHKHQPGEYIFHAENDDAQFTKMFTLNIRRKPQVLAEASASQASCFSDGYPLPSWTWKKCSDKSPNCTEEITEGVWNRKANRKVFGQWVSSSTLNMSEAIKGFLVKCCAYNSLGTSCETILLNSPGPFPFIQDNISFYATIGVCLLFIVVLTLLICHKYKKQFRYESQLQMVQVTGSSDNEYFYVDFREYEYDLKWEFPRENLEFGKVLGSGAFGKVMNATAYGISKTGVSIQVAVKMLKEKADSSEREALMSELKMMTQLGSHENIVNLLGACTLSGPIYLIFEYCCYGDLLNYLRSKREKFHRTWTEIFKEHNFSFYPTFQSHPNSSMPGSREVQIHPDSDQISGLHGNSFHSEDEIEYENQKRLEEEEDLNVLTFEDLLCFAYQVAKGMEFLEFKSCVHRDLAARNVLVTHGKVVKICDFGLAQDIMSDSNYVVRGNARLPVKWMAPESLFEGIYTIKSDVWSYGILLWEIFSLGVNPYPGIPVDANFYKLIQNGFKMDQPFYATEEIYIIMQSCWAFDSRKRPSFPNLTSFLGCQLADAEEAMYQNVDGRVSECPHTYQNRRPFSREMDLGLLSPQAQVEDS

A further test deals with T2, JNK1 (Homo sapiens, UniProt P45983).
T2 construct: gene MAPK8
T2 sequence (P45983 whole entry): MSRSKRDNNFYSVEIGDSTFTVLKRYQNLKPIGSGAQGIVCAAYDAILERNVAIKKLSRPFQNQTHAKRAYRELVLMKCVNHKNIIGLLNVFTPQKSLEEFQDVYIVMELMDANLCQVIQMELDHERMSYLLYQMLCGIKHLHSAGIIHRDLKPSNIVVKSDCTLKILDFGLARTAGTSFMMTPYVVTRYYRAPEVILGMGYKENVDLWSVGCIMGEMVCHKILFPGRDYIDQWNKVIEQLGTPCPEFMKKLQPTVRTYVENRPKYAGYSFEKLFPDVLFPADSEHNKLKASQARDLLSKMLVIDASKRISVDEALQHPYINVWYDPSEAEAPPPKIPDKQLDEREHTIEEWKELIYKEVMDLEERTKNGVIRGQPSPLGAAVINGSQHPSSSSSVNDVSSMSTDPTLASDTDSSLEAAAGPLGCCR

The next test concerns the target T3, PKAC-alpha (Homo sapiens, UniProt P17612).
T3 construct: gene PRKACA

In the next test the target is T4, TSSK3 (Homo sapiens, UniProt Q96PN8).
T4 sequence (Q96PN8 1-268): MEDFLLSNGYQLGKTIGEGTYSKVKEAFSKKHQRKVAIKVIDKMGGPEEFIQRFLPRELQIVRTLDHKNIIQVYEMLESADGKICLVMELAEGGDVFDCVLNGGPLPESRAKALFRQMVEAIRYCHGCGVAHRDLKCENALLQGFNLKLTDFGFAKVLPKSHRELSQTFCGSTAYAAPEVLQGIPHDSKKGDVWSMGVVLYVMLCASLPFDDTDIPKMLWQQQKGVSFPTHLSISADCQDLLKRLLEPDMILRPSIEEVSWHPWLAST

The target of a further test is T5, NEK5 (Homo sapiens, UniProt Q6P3R8).
T5 sequence (Q6P3R8 1-708): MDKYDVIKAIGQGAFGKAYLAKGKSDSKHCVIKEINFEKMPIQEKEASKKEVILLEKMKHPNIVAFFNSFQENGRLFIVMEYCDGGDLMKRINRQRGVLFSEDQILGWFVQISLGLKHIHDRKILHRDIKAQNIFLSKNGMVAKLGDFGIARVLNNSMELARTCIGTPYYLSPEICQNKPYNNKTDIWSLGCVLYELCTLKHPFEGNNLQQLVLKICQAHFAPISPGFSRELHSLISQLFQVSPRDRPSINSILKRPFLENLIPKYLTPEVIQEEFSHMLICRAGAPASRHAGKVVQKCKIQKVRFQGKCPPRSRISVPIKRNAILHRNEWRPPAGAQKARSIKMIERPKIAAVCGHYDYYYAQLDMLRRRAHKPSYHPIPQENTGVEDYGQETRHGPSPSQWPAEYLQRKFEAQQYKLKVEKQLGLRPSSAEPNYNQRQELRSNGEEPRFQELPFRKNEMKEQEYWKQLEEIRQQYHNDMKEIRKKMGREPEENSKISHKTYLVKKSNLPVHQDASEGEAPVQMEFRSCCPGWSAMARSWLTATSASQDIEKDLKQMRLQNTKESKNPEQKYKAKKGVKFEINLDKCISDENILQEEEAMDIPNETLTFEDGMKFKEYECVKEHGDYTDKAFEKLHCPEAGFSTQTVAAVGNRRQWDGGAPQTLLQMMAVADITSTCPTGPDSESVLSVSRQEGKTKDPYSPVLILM

The mark [1] stands for this setting: read-out: Rucaparib / %Ctrl @ 10000nM, binding competition, % of control.
Where [2] appears, read: read-out: Talazoparib (BMN 673) / %Ctrl @ 10000nM.
Where [3] appears, read: read-out: Niraparib (MK-4827) / %Ctrl @ 10000nM.
Setting [4] is: read-out: Olaparib / %Ctrl @ 10000nM.

Read-outs that look alike come from different tables or passages of the source.

Chain of KIT(V559D,T670I) (P10721 whole entry V559D/T670I): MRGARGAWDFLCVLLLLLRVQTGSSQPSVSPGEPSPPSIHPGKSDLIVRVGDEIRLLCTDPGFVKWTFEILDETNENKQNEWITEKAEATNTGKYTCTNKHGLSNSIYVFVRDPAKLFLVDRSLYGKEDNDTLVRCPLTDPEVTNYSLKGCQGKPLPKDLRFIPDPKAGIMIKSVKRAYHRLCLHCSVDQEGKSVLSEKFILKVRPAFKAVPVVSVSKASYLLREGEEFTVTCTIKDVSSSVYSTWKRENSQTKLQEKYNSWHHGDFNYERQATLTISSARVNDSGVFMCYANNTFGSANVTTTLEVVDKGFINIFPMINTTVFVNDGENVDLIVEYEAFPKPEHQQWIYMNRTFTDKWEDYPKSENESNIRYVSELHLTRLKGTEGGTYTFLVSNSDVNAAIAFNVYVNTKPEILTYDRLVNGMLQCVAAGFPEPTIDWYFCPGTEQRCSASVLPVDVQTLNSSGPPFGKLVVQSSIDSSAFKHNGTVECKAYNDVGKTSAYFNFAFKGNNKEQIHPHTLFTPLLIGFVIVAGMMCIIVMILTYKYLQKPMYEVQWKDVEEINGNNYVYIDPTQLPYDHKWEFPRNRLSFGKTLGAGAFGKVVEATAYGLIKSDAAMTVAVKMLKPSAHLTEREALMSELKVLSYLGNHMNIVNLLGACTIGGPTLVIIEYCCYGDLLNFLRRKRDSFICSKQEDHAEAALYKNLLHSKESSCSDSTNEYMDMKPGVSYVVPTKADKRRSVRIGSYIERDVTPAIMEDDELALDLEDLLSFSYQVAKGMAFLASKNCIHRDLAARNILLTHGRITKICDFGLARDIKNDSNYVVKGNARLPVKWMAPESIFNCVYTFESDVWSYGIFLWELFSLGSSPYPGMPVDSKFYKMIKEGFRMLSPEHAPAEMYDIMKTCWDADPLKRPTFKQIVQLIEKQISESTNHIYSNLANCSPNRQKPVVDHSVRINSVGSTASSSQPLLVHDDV
Chain of NEK6 (Q9HC98 whole entry): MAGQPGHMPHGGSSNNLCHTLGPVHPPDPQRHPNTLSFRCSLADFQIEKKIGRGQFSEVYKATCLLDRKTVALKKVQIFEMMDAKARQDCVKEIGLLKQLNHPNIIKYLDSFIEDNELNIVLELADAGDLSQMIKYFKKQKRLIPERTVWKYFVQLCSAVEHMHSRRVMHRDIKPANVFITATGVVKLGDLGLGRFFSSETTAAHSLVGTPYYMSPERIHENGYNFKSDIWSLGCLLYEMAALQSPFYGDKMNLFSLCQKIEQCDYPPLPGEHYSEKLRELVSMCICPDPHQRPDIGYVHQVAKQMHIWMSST
Chain of CAMK1D (Q8IU85 whole entry): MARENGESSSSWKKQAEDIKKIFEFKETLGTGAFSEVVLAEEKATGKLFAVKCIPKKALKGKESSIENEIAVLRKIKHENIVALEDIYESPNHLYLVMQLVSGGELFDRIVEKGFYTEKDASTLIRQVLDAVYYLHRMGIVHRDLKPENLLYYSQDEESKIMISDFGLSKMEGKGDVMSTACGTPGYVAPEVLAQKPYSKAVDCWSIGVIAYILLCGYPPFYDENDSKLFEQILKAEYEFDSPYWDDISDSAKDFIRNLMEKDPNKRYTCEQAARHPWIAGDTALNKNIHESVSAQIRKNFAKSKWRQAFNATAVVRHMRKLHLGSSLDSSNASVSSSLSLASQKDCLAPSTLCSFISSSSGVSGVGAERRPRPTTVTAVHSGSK
Chain of SRMS (Q9H3Y6 whole entry): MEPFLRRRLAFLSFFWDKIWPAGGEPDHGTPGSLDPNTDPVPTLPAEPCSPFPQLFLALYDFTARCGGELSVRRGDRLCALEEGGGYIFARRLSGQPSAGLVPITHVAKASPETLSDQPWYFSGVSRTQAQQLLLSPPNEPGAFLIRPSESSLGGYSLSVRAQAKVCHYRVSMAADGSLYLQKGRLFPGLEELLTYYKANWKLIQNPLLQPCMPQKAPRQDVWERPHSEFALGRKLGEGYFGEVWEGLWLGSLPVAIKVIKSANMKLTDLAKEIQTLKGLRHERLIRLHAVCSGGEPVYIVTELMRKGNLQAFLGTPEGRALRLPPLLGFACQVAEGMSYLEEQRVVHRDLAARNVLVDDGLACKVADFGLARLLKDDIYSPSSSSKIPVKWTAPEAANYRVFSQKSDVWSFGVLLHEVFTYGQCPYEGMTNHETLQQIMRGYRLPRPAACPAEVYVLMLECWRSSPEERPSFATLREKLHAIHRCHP
Chain of ROCK2 (O75116 whole entry): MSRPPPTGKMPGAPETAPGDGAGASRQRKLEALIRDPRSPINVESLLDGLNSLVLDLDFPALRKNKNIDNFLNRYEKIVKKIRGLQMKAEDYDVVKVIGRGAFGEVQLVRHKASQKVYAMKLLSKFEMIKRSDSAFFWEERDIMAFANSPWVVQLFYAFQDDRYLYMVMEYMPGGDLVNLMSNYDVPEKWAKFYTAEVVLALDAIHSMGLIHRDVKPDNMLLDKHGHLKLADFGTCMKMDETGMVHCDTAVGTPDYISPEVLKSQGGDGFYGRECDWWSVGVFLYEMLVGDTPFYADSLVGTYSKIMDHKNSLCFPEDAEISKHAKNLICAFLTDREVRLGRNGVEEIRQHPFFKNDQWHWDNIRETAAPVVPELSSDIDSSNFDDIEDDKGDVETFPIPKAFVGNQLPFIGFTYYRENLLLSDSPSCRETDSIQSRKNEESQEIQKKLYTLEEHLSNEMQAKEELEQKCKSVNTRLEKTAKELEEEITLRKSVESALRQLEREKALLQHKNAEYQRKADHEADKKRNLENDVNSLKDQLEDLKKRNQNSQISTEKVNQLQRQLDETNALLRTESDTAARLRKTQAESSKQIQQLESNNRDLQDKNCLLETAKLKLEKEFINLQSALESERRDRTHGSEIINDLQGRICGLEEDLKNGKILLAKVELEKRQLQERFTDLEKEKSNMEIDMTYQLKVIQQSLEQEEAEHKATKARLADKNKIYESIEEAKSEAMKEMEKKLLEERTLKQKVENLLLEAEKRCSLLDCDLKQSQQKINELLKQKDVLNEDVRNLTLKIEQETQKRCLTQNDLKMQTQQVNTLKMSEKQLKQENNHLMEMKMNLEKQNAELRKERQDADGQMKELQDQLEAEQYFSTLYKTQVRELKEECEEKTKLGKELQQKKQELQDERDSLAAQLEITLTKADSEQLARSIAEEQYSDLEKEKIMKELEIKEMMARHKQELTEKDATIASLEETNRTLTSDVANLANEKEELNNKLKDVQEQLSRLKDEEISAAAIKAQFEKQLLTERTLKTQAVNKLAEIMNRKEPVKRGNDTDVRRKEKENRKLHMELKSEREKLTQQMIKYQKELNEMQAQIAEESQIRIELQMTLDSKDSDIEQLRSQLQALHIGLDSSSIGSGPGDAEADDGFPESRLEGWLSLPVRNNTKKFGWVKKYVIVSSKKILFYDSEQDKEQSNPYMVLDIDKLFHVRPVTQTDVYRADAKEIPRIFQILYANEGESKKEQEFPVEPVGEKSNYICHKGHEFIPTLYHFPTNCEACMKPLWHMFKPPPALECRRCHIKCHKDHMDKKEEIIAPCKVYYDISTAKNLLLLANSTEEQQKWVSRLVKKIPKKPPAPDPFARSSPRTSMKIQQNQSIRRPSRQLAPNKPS

Turning to `CNCc1ccc(-c2[nH]c3cc(F)cc4c3c2CCNC4=O)cc1` [Rucaparib], the percent of control binding at 10 µM on ROCK2 (setting [1]) was 85%; on JNK1 (setting [1]), 65%; at NEK6 (setting [1]), 89%; on PKAC-alpha (setting [1]), 100%; on KIT(V559D,T670I) (setting [1]), 91%; at TSSK3 (setting [1]) it was 0%. Further, the results for the percent of control binding at 10 µM at CAMK1D (setting [1]), at SRMS (setting [1]) and at NEK5 (setting [1]) were 86%, 79% and 87%, respectively. Also, the “Rucaparib / %Ctrl @ 10000nM” value on FLT3(R834Q) (binding competition, % of control) amounted to 81%.
`Cn1ncnc1[C@H]1c2n[nH]c(=O)c3cc(F)cc(c23)N[C@@H]1c1ccc(F)cc1` [Talazoparib]: the percent of control binding at 10 µM was determined as 100% on ROCK2 (setting [2]); 100% at FLT3(R834Q) (setting [2]); 79% at JNK1 (setting [2]); 99% on NEK6 (setting [2]); 88% at PKAC-alpha (setting [2]); 100% at KIT(V559D,T670I) (setting [2]). Also, the percent of control binding at 10 µM on TSSK3 (setting [2]) amounted to 84%; at CAMK1D (setting [2]) it was 91%; on SRMS (setting [2]), 100%; on NEK5 (setting [2]), 97%.
As to `NC(=O)c1cccc2cn(-c3ccc([C@@H]4CCCNC4)cc3)nc12` [Niraparib], the percent of control binding at 10 µM at ROCK2 (setting [3]) came to 73%; at FLT3(R834Q) (setting [3]), 100%; at JNK1 (setting [3]) it was 85%; at NEK6 (setting [3]), 100%; on PKAC-alpha (setting [3]), 86%; on KIT(V559D,T670I) (setting [3]) it was 97%. Besides, the percent of control binding at 10 µM on TSSK3 (setting [3]) was 91%; at CAMK1D (setting [3]), 84%; at SRMS (setting [3]) it was 100%; at NEK5 (setting [3]), 89%.
On to `O=C(c1cc(Cc2n[nH]c(=O)c3ccccc23)ccc1F)N1CCN(C(=O)C2CC2)CC1` [Olaparib], for which the percent of control binding at 10 µM on ROCK2 (setting [4]) turned out to be 75%; on FLT3(R834Q) (setting [4]) it was 79%; on JNK1 (setting [4]), 98%; at NEK6 (setting [4]) it was 96%; on PKAC-alpha (setting [4]), 100%; on KIT(V559D,T670I) (setting [4]), 92%. Further, the percent of control binding at 10 µM on TSSK3 (setting [4]) amounted to 89%; on CAMK1D (setting [4]), 94%; on SRMS (setting [4]), 92%; on NEK5 (setting [4]), 96%.
